Laboratory results as given in patent US20240417405A1, “Substituted Spiro Derivatives” (Janssen Pharmaceutica NV, priority 2021, published 2024).
pIC50: −log10 of the molar value.

Legend:
[1] = tested on: KO-52 cells; test: Proliferation assay, spheroid-like growth, KO-52 (MLL wildtype control cell line); assay type: cell-based, human; conditions: Homo sapiens, 192 h, KO-52 control cells, 8 days, confluence as measure of spheroid size; read-out: spheroid assay_OneTime KO-52 IC50
Outline: (§1)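 IC50 derived from a variable-slope dose-response fit of percent confluence change, with DMSO-treated cells as high control and high-dose reference compound as low control. Spheroid-like growth of MOLM14 (200 cells/well) or KO-52 (300 cells/well) in ultra-low attachment plates, 8 days, 37° C, 5% CO2, DMSO normalised to 0.3%, imaged at day 8.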

[2] = tested on: MOLM14 cells; test: Proliferation assay, spheroid-like growth, MOLM14 (MLL-AF9 rearranged); assay type: cell-based, human; conditions: Homo sapiens, MOLM-14, 192 h, 8 days, confluence as measure of spheroid size, read-out: spheroid assay_OneTime MOLM14 IC50
Outline: as §1

[3] = biological target: T1, menin/MLL (terbium chelate-labeled menin, FITC-MBM1 peptide) (Homo sapiens, UniProt O00255, T541A); test: Menin/MLL homogenous time-resolved fluorescence (HTRF) assay; assay type: binding; conditions: 30 min incubation
T1 construct: Menin (a.a 1-610-6xhis tag)
T1 sequence (O00255 with tags, fused parts or gaps T541A): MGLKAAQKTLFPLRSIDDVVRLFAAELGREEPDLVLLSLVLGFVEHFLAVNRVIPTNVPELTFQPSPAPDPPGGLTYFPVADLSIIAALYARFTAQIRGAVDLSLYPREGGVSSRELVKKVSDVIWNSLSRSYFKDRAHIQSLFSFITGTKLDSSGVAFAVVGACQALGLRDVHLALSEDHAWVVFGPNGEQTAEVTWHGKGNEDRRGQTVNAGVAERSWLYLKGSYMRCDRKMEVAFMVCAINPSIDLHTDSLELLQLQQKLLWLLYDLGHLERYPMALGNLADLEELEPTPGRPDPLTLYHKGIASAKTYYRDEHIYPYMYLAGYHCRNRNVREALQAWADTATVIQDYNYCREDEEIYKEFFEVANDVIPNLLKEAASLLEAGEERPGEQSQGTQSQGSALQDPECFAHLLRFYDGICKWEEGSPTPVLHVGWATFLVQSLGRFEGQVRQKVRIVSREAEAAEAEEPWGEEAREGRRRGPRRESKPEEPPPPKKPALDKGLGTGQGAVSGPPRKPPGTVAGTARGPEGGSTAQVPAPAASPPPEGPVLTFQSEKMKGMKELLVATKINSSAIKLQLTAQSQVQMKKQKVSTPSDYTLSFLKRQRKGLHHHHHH
Outline: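 Compounds were preincubated 30 min at ambient temperature with 200 pM terbium-labeled menin (aa 1-610, His-tagged) in Tris pH 7.5 buffer with DTT and Pluronic, then 75 nM FITC-MBM1 peptide added for 15 min. HTRF ratio 520/490 nm gave % inhibition; IC50 from four-parameter fit, floor 0.1 nM.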

pIC50 [2]	pIC50 [3]	SMILES	pIC50 [1]
8.52	9.70	CO[C@H]1CCN([C@H]2C[C@@H](C(C(C)C)N3CC4(CCN(c5ncnnc5Oc5ccc(F)cc5-c5nnccc5C5CC5)C4)C3)C2)C1 (single isomer, unassigned) [Compound 331]	5.55
7.74	10.00	CC(C)[C@H]([C@H]1C[C@@H](N2CC3(CCN(C)C3=O)C2)C1)N1CC2(CCN(c3ncnnc3Oc3ccc(F)cc3-c3cncnc3C3CC3)C2)C1 (single isomer, unassigned) [Compound 315]	5.71
6.60	9.52	CC(C)C(C1CC2(CCN2)C1)N1CC2(CCN(c3ncnnc3Oc3ccc(F)cc3-c3cncnc3C3CC3)C2)C1 (stereo not drawn) [Compound 198]	< 4.82
6.52	9.10	CC(C)C(C1CCN(CC2COC2)CC1)N1CC2(CCN(c3ncnnc3Oc3ccc(F)cc3-c3ncncc3C3CC3)C2)C1 (stereo not drawn) [Compound 203]	5.73
7.26	9.00	CC(C)[C@H]([C@H]1C[C@H](N2CCC2)C1)N1CC2(CCN(c3ncnnc3Oc3ccc(F)cc3-c3cncnc3C3CC3)C2)C1 (single isomer, unassigned) [Compound 345]	5.13
8.40	10.00	CC(C)[C@H]([C@H]1C[C@@H](N2C[C@@H]3[C@H](C2)[C@H]3C(=O)N(C)C)C1)N1CC2(CCN(c3ncnnc3Oc3ccc(F)cc3-c3cncnc3C3CC3)C2)C1 (single isomer, unassigned) [Compound 248]	5.84
8.15	10.00	CC(C)[C@H]([C@H]1C[C@@H](N2CCC3(CC2)COC3)C1)N1CC2(CCN(c3ncnnc3Oc3ccc(F)cc3-c3cncnc3C3CC3)C2)C1 (single isomer, unassigned) [Compound 231]	5.26
6.59	8.62	CC(C)[C@H]([C@H]1C[C@@H](N2CCC3(CCCO3)C2)C1)N1CC2(CCN(c3ncnnc3Oc3ccc(F)cc3-c3nnccc3C3CC3)C2)C1 (single isomer, unassigned) [Compound 271]	< 4.82
7.80	10.00	CC(C)[C@@H]([C@H]1C[C@@H](N2CCC3(COC3)C2)C1)N1CC2(CCN(c3ncnnc3Oc3ccc(F)cc3-c3nnccc3C3CC3)C2)C1 (single isomer, unassigned) [Compound 254]	< 4.82

The next lines start with the compound.

SMILES	pIC50 [2]	pIC50 [3]	pIC50 [1]
CC(C)C([C@H]1C[C@@H](N2CC(O)C2)C1)N1CC2(CCN(c3ncnnc3Oc3ccc(F)cc3-c3cncnc3C3CC3)C2)C1 (stereo partly drawn) [Compound 125]	7.92	10.00	5.28
CC(=O)N[C@H]1C[C@@H]([C@@H](C(C)C)N2CC3(CCN(c4ncnnc4Oc4ccc(F)cc4-c4cncnc4C4CC4)C3)C2)C1 (single isomer, unassigned) [Compound 2a]	7.66	9.70	5.15
CC(=O)N1CCN([C@H]2C[C@H]([C@@H](C(C)C)N3CC4(CCN(c5ncnnc5Oc5ccc(F)cc5-c5cncnc5C5CC5)C4)C3)C2)CC1 (single isomer, unassigned) [Compound 35]	6.47	8.89	< 4.82
CC(C)[C@H]([C@H]1C[C@@H](N2CCC(O)C(F)C2)C1)N1CC2(CCN(c3ncnnc3Oc3ccc(F)cc3-c3cncnc3C3CC3)C2)C1 (single isomer, unassigned) [Compound 10]	7.77	9.40	5.29
CC(C)[C@H]([C@H]1C[C@@H](N2CCC[C@@H](C(=O)N(C)C)C2)C1)N1CC2(CCN(c3ncnnc3Oc3ccc(F)cc3-c3cncnc3C3CC3)C2)C1 (single isomer, unassigned) [Compound 50]	> 8.70	10.00	< 4.82
CC(C)[C@@H](C1CC2(CCN2CC2COC2)C1)N1CC2(CCN(c3ncnnc3Oc3ccc(F)cc3-c3cncnc3C3CC3)C2)C1 (single isomer, unassigned) [Compound 158]	6.32	9.10	< 4.82
CC(C)[C@H]([C@H]1C[C@@H](N2CC[C@H](C(C)(C)O)C2)C1)N1CC2(CCN(c3ncnnc3Oc3ccc(F)cc3-c3cncnc3C3CC3)C2)C1 (single isomer, unassigned) [Compound 68]	8.30	10.00	5.36
CC(C)[C@@H]([C@H]1C[C@H](N2CC[C@H](C(=O)N(C)C)C2)C1)N1CC2(CCN(c3ncnnc3Oc3ccc(F)cc3-c3cnncc3C3CC3)C2)C1 (single isomer, unassigned) [Compound 117]	6.77	10.00	< 4.82
CC(=O)N1CC2CN([C@H]3C[C@H]([C@@H](C(C)C)N4CC5(CCN(c6ncnnc6Oc6ccc(F)cc6-c6cncnc6C6CC6)C5)C4)C3)CC2C1 (single isomer, unassigned) [Compound 65]	6.89	9.70	4.93
CC(C)[C@H]([C@H]1C[C@@H](N2CC[C@@]3(CCN(C)C3=O)C2)C1)N1CC2(CCN(c3ncnnc3Oc3ccc(F)cc3-c3cncnc3C3CC3)C2)C1 (single isomer, unassigned) [Compound 66]	8.22	10.00	< 4.82
CC(C)C([C@H]1C[C@H](N2CCC(F)(F)CC2)C1)N1CC2(CCN(c3ncnnc3Oc3ccc(F)cc3-c3cncnc3C3CC3)C2)C1 (stereo partly drawn) [Compound 128]	6.35	8.89	5.10
CC(C)[C@H]([C@H]1C[C@H](N2CCC(O)C(F)C2)C1)N1CC2(CCN(c3ncnnc3Oc3ccc(F)cc3-c3cncnc3C3CC3)C2)C1 (single isomer, unassigned) [Compound 33]	8.15	9.52	5.60
CC(C)[C@@H]([C@H]1C[C@H](N2CC[C@](C)(O)C2)C1)N1CC2(CCN(c3ncnnc3Oc3ccc(F)cc3-c3cnncc3C3CC3)C2)C1 (single isomer, unassigned) [Compound 113]	6.70	9.70	< 4.82
CC(C)[C@H]([C@H]1C[C@H](N2CC3(COC3)C2)C1)N1CC2(CCN(c3ncnnc3Oc3ccc(F)cc3-c3cnncc3C3CC3)C2)C1 (single isomer, unassigned) [Compound 83]	6.01	8.80	< 4.82
CC(=O)N[C@H]1C[C@@H](C(C(C)C)N2CC3(CCN(c4ncnnc4Oc4ccc(F)cc4-c4ncncc4C4CC4)C3)C2)C1 (stereo partly drawn) [Compound 179]	7.14	9.40	4.90
CC(C)[C@H]([C@H]1C[C@@H](N2CCCC2)C1)N1CC2(CCN(c3ncnnc3Oc3ccc(F)cc3-c3cncnc3C3CC3)C2)C1 (single isomer, unassigned) [Compound 18]	8.70	10.00	6.09
CC(C)[C@@H]([C@H]1C[C@@H](N2CC[C@](C)(O)C2)C1)N1CC2(CCN(c3ncnnc3Oc3ccc(F)cc3-c3cnncc3C3CC3)C2)C1 (single isomer, unassigned) [Compound 112]	8.22	10.00	4.99
CC(C)[C@@H]([C@H]1C[C@@H](NC(=O)C2CC2)C1)N1CC2(CCN(c3ncnnc3Oc3ccc(F)cc3-c3cnncc3C3CC3)C2)C1 (single isomer, unassigned) [Compound 186]	< 6.03	8.27	5.15
CC(C)[C@H]([C@H]1C[C@@H](N2C[C@H]3COC[C@H]3C2)C1)N1CC2(CCN(c3ncnnc3Oc3ccc(F)cc3-c3cnc(C#N)nc3C3CC3)C2)C1 [Compound 167]	> 8.70	10.00	5.39
CC(=O)N1CC2(CCN([C@H]3C[C@@H]([C@@H](C(C)C)N4CC5(CCN(c6ncnnc6Oc6ccc(F)cc6-c6cncnc6C6CC6)C5)C4)C3)C2)C1 (single isomer, unassigned) [Compound 53]	8.30	9.70	5.03
COC1CCN([C@H]2C[C@@H](C(C(C)C)N3CC4(CCN(c5ncnnc5Oc5ccc(F)cc5-c5cncnc5C5CC5)C4)C3)C2)CC1 (stereo partly drawn) [Compound 124]	7.92	9.70	5.60
